Laboratory results published in PMC5978884, “Dissection of the antimicrobial and hemolytic activity of Cap18: Generation of Cap18 derivatives with enhanced specificity” (PLoS ONE, 2018).
Where no end group is shown, it is not given here.

Experiments:
Assay type in all cases: cell-based
[1] = tested on: Aeromonas salmonicida ATCC33658; experiment: microbe, parasite or virus in culture; conditions: ATCC33658
Experimental: (§1) All strains were grown in Mueller-Hinton-II medium, except L. monocytogenes which was grown in BHI medium and L. lactis which was grown in MRS medium. Incubation took place aerobically at 37°C, except for Y. ruckeri and A. salmonicida, which were grown aerobically at RT (20 °C), and L. lactis grown aerobically at 30°C. All plates were incubated for 16–21 hours.
(§2) The minimum inhibitory concentrations (MICs) of the AMPs were measured in 96-well microtiter plates according the Clinical and Laboratory Standards Institute (CLSI, formerly National Committee for Clinical Laboratory Standards [NCCLS]). Briefly, liquid Mueller-Hinton-II medium containing increasing concentrations of AMPs is inoculated with a defined number of cells (approx. 10^5 CFUs/ml) in 96-well microtiter plates (polypropylene), whereas each plate also includes a positive growth control and a negative control (sterile control). The range of peptide concentrations analyzed was 0.125–64 μg/ml for the high purity peptides and 0.06–32 μg/ml for peptides of the variant library. After incubation, the MIC is determined by the lowest concentration showing no visible growth. All plates were incubated for 16–20 hours. The MIC of the reference antibiotics was determined by the use of Sensititre panels (Trek Diagnostic Systems Ltd, East Grinstead, UK).

[2] = tested on: Salmonella enterica serovar Typhimurium LT2; experiment: microbe, parasite or virus in culture; conditions: LT2
Experimental: as §1, §2

[3] = tested on: Yersinia ruckeri 392/2003; experiment: microbe, parasite or virus in culture
Experimental: as §1, §2

[4] = tested on: Enterococcus faecalis ATCC29212
Experimental: as §1, §2

[5] = tested on: Escherichia coli ATCC25922
Experimental: as §1, §2

[6] = tested on: Lactococcus lactis IL1403
Experimental: as §1, §2

[7] = tested on: Listeria monocytogenes N22-2
Experimental: as §1, §2

[8] = tested on: Pseudomonas aeruginosa ATCC27853
Experimental: as §1, §2

Sequence	MIC A. salmonicida [1]	MIC A. salmonicida ATCC33658 [1]	MIC S. Typhimurium [2]	MIC S. Typhimurium LT2 [2]	MIC Y. ruckeri [3]	MIC Y. ruckeri 392/2003 [3]	MIC E. faecalis ATCC29212 [4]	MIC E. coli ATCC25922 [5]	MIC L. lactis IL1403 [6]	MIC L. monocytogenes N22-2 [7]	MIC P. aeruginosa ATCC27853 [8]	MIC L. lactis [6]
GLRKRLRKFRNKIKEFLKKIGQKIQGLLPKLAPRTDY [Peptide 11]	4 mg/L	16 to 32 mg/L	8 mg/L	16 mg/L	4 mg/L	16 to 32 mg/L	16 mg/L	16 mg/L	≥64 mg/L	16 mg/L	32 mg/L	
GLRKRLRKFRNKIKELLKKIGQKIQGLLPKLAPRTDY [Peptide 13]	4 mg/L	16 mg/L	4 mg/L	16 mg/L	4 mg/L	16 mg/L	16 mg/L	16 mg/L	≥64 mg/L	8 to 16 mg/L	16 to 32 mg/L	
GLRKRLRKFRNKIKEYLKKIGQKIQGLLPKLAPRTDY [Peptide 15]	4 mg/L	16 mg/L	8 mg/L	16 mg/L	8 mg/L	8 to 16 mg/L	16 mg/L	16 mg/L	≥64 mg/L	8 to 16 mg/L	16 mg/L	
GLRKRLRKFRNKIKEMLKKIGQKIQGLLPKLAPRTDY [Peptide 14]	4 mg/L	8 to 16 mg/L	4 mg/L	16 mg/L	4 mg/L	8 to 16 mg/L	32 mg/L	16 mg/L	≥64 mg/L	16 mg/L	16 to 32 mg/L	
GLRKRLRKFRNKIKEKLKKICQKIQGLLPKLAPRTDY [Peptide 23]	4 mg/L	16 to 32 mg/L	8 mg/L	16 mg/L	4 mg/L	16 mg/L	32 mg/L	16 mg/L	≥64 mg/L	16 mg/L	32 mg/L	
GLRKRLRKFRNKIKEKLKKHGQKIQGLLPKLAPRTDY [Peptide 21]	2 mg/L	4 mg/L	2 mg/L	8 mg/L	8 mg/L	16 mg/L	≥64 mg/L	32 mg/L	32 mg/L	16 mg/L	8 mg/L	
GLRKRLRKFRNKIKEKLKKNGQKIQGLLPKLAPRTDY [Peptide 22]	4 mg/L	16 mg/L	4 mg/L	8 to 16 mg/L	16 mg/L	≥64 mg/L	≥64 mg/L	≥64 mg/L	≥64 mg/L	16 to 32 mg/L	8 to 16 mg/L	
GLRKRLRKFRNKIKEKLKKIGQKSQGLLPKLAPRTDY [Peptide 29]	8 mg/L	8 mg/L	4 mg/L	8 mg/L	16 mg/L	16 mg/L	≥64 mg/L	32 to 64 mg/L	32 mg/L	16 to 32 mg/L	8 to 16 mg/L	
GLRKRLRKFRNKIKEKKKKIGQKIQGLLPKLAPRTDY [Peptide 17]	4 mg/L	16 to 32 mg/L	4 mg/L	16 mg/L		≥64 mg/L	≥64 mg/L	≥64 mg/L	≥64 mg/L	16 to 32 mg/L	8 mg/L	
GLRKRLRKFRNKIKEILKKIGQKIQGLLPKLAPRTDY [Peptide 12]	4 mg/L	8 to 16 mg/L	4 mg/L	16 mg/L	4 mg/L	16 mg/L	16 mg/L	16 mg/L	≥64 mg/L	8 to 16 mg/L	16 mg/L	
GLRKRLRKFRNKSKEKLKKIGQKIQGLLPKLAPRTDY [Peptide 8]	2 mg/L	4 mg/L	4 mg/L	8 mg/L		8 to 16 mg/L	≥64 mg/L	16 mg/L	≥64 mg/L	32 mg/L	8 to 16 mg/L	8 mg/L
GLRKRLRKFRNKIKEKLKKIGQKCQGLLPKLAPRTDY [Peptide 25]	4 mg/L	4 to 8 mg/L	4 mg/L	8 to 16 mg/L	4 mg/L	16 mg/L	64 mg/L	16 mg/L	≥64 mg/L	16 mg/L	16 mg/L	
GLRKRLRKFRNKIKECLKKIGQKIQGLLPKLAPRTDY [Peptide 9]	4 mg/L	8 mg/L	8 mg/L	8 to 16 mg/L	2 mg/L	8 to 16 mg/L	32 mg/L	8 mg/L	≥64 mg/L	16 mg/L	16 to 32 mg/L	
GLRKRLRKFRNKFKEKLKKIGQKIQGLLPKLAPRTDY [Peptide 4]		4 mg/L		4 mg/L		2 mg/L	8 to 16 mg/L	4 to 8 mg/L	2 mg/L	4 mg/L	4 to 8 mg/L	
